# Experimental data as given in patent US5932577A, “Substituted oxobutyric acids as matrix metalloprotease inhibitors” (Bayer Corporation, priority 1997, dated 1999).
# Experiments:
# [1] = target: T1, Recombinant Human CHO Stromelysin (MMP-3) (Homo sapiens, UniProt P08254); assay: P218 quenched fluorescence assay (Microfluorometric Profiling Assay), MMP-3; assay type: biochemical; settings: for inhibition at 5 µM: read-out: MMP-3 Fluorogenic, I = % inhibition; for IC50: 6 μM P218, pH 6.5, 25 min at 37° C., read-out: MMP-3 Fluorogenic IC50
# T1 construct: made in house; host or cells: CHO (Chinese hamster ovary) cells
# From the text: (§1) P218 Quenched Fluorescence Assay for MMP Inhibition:
# (§2) The P218 quenched fluorescence assay (Microfluorometric Profiling Assay) is a modification of that originally described by Knight, et al., FEBS Lett. 296 263, 1992 for a related substance and a variety of matrix metalloproteinases (MMPs) in cuvettes. The assay was run with each invention compound and the three MMPs, MMP-3, MMP-9 and MMP-2, analyzed in parallel, adapted as follows for a 96-well microtiter plate and a Hamilton AT® workstation.
# (§3) P218 Fluorogenic Substrate:
# (§4) P218 is a synthetic substrate containing a 4-acetyl-7-methoxycoumarin (MCA) group in the N-terminal position and a 3-[2,4-dinitrophenyl]-L-2,3-diaminopropionyl (DPA) group internally. This is a modification of a peptide reported by Knight (1992) that was used as a substrate for matrix metalloproteinases. Once the P218 peptide is cleaved (putative clip site at the Ala-Leu bond), the fluorescence of the MCA group can be detected on a fluorometer with excitation at 328 nm and emission at 393 nm. P218 is currently being produced BACHEM exclusively for Bayer. P218 has the structure:
# (§5) H-MCA-Pro-Lys-Pro-Leu-Ala-Leu-DPA-Ala-Arg-NH2 (MW 1332.2)
# Recombinant Human CHO Stromelysin (MMP-3)
# Recombinant Human CHO Pro-MMP-3: Human CHO pro-stromelysin-257 (pro-MMP-3) was expressed and purified as described by Housley, et al., J. Biol. Chem. 268, 4481 (1993).
# Activation of Pro-MMP-3: Pro-MMP-3 at 1.72 μM (100 μg/mL) in 5 mM Tris at pH 7.5, 5 mM CaCl2, 25 mM NaCl, and 0.005% Brij-35 MMP-3) activation buffer) was activated by incubation with TPCK (N-tosyl-(L)-phenylalanine chloromethyl ketone) trypsin (1: 100 w/w to pro-MMP-3) at 25° C. for 30 min. The reaction was stopped by addition of soybean trypsin inhibitor (SBTI; 5:1 w/w to trypsin concentration). This activation protocol results in the formation of 45 kDa active MMP-3, which still contains the C-terminal portion of the enzyme.
# (§6) Hamiltion Microlab AT Plus: The MMP-Profiling Assay is performed robotically on a Hamilton MicroLab AT Plus®. The Hamilton is programmed to: (1) serially dilute up to 11 potential inhibitors automatically from a 2.5 mM stock in 100% DMSO; (2) distribute substrate followed by inhibitor into a 96 well Cytofluor plate; and (3) add a single enzyme to the plate with mixing to start the reaction. Subsequent plates for each additional enzyme are prepared automatically by beginning the program at the substrate addition point, remixing the diluted inhibitors and beginning the reaction by addition of enzyme. In this way, all MMP assays were done using the same inhibitor dilutions.
# (§7) Millipore Cytofluor II. Following incubation, the plate was read on a Cytofluor II fluorometric plate reader with excitation at 340 nm and emission at 395 nm with the gain set at 80.
# (§8) Microfluorometric Reaction Buffer (MRB): Dilution of test compounds, enzymes, and P218 substrate for the microfluorometric assay were made in microfluorometric reaction buffer consisting of 50 mM 2-(N-morpholino)ethanesulfonic acid (MES) at pH 6.5 with 10 mM CaCl2, 150 mM NaCl, 0.005% Brij-35 and 1% DMSO.
# (§9) MMP Microfluorometric Profiling Assay. The assay is done with a final substrate concentration of 6 μM P218 and approximately 0.5 to 0.8 nM MMP with variable drug concentrations. The Hamilton is programmed to serially dilute up to 11 compounds from a 2.5 mM stock (100% DMSO) to 10× the final compounds concentrations in the assay. Initially, the instrument delivers various amounts of microfluoromentric reaction buffer (MRB) to a 96 tube rack of 1 ml Marsh dilution tubes. The instrument then picks up 20 μl of inhibitor (2.5 mM) from the sample rack and mixes it with a buffer in row A of the Marsh rack, resulting in a 50 μM drug concentration. The inhibitors are then serially diluted to 10, 5, 1, 0.2, 0.05 and 0.01 μM. […]
# [2] = target: T2, Human Recombinant Gelatinase A (MMP-2) (Homo sapiens, UniProt P08253); assay: P218 quenched fluorescence assay (Microfluorometric Profiling Assay), MMP-2; assay type: biochemical; settings: for inhibition at 5 µM: read-out: MMP-2 Fluorogenic, I = % inhibition; for IC50: 6 μM P218, pH 6.5, 25 min at 37° C., read-out: MMP-2 Fluorogenic IC50
# T2 sequence (P08253 110-660): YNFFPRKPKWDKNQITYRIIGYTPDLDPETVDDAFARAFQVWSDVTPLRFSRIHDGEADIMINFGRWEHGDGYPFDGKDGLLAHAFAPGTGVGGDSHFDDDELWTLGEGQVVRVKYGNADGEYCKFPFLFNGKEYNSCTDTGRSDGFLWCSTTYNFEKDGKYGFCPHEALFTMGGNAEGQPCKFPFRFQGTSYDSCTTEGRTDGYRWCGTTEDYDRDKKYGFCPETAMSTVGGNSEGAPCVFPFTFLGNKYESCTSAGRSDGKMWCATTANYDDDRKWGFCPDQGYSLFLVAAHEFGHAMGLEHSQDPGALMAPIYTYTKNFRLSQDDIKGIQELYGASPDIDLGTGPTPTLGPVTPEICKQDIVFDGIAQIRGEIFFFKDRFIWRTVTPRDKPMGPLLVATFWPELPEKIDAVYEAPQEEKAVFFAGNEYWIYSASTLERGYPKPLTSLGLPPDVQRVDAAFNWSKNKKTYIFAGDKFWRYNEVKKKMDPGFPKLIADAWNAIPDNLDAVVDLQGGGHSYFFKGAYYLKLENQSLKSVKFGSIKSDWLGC
# [3] = target: T3, Human Recombinant Gelatinase B (MMP-9) (Homo sapiens, UniProt P14780); assay: P218 quenched fluorescence assay (Microfluorometric Profiling Assay), MMP-9; assay type: biochemical; settings: 6 μM P218, pH 6.5, 25 min at 37° C.; read-out: MMP-9 Fluorogenic IC50
# T3 construct: made in house
# From the text: as §1, §2, §3, §4, §5
# Preparation of Human Recombinant Pro-Gelatinase B (MMP-9):
# Recombinant Human Pro-MMP-9: Human pro-gelatinase B (pro-MMP-9) derived from U937 cDNA as described by Wilhelm, et al. J. Biol. Chem. 264, 17213 (1989) was expressed as the full-length form using a baculovirus protein expression system. The pro-enzyme was purified using methods previously described by Hibbs, et al. J. Biol. Chem. 260, 2493 (1984).
# Activation of Pro-MMP-9: […] 20 μg/mL in 50 mM Tris at pH 7.4, 10 mM CaCl2, 150 mM NaCl, and 0.005% Brij-35 (MMP-9 activation buffer) was activated by incubation with 0.5 mM p-aminophenylmercuric acetate (APMA) for 3.5 h at 37° C. The enzyme was dialyzed against the same buffer to revmove the APMA.
# as §6, §7, §8, §9
# [4] = test system: human ovarian carcinoma xenografts; settings: cited from earlier work
# human colon tumor = settings: given intraperitoneally, orthotopic model, nude mice; cited from earlier work
# T1 sequence (P08254 100-477): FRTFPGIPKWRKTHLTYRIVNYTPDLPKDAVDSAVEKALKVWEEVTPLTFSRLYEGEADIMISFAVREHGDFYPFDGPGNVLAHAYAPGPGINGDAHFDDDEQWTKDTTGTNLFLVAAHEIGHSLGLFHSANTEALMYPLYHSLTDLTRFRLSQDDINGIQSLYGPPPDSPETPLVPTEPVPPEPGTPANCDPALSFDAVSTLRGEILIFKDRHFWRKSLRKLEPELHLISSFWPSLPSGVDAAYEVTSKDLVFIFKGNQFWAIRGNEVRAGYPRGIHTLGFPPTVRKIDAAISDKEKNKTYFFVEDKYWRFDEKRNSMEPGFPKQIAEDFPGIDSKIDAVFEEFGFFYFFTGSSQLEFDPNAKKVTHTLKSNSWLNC
# T3 sequence (P14780 107-707 limits assumed): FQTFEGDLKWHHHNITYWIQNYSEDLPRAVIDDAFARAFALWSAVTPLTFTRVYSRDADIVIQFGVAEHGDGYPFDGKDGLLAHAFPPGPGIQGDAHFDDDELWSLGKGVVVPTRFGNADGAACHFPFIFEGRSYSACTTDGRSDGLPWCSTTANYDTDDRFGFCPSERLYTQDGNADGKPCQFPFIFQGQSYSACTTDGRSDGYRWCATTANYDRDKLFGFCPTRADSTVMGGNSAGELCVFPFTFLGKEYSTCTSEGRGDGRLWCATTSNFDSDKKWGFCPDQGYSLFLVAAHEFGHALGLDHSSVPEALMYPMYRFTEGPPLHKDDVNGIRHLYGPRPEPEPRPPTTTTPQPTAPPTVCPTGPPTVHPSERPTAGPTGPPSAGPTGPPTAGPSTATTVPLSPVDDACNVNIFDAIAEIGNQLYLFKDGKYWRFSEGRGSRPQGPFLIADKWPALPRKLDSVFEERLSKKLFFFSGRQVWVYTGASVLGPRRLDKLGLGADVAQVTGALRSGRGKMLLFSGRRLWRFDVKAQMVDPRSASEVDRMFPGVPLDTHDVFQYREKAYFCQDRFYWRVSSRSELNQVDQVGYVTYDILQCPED
smiles,measurement,setting,value
COc1ccc(CC(=O)CC(CCc2ccccc2)C(=O)O)cc1 (stereo not drawn) [IX],inhibition at 5 µM,[1],9%
same,inhibition at 5 µM,[2],18%
"CCCCCCCCCCCCCC(=O)CC(CCN1C(=O)c2ccccc2C1=O)C(=O)O (stereo not drawn) [V, 1,3-dihydro-1,3-dioxo-α-(2-oxopentadecyl)-2H-isoindole-2-butanoic acid]",IC50,[3],150 nM
same,IC50,[1],3.38 µM
same,IC50,[2],1100 nM
"CCCCCCCCCCCCCCC(=O)CC(CCN1C(=O)c2ccccc2C1=O)C(=O)O (stereo not drawn) [VI, 1,3-dihydro-1,3-dioxo-α-(2-oxohexadecyl)-2H-isoindole-2-butanoic acid]",IC50,[3],235 nM
same,inhibition at 5 µM,[1],45%
same,IC50,[2],1020 nM
"CCCCCCCCCCC(=O)CC(CCN1C(=O)c2ccccc2C1=O)C(=O)O (stereo not drawn) [I, 1,3-dihydro-1,3-dioxo-α-(2-oxododecyl)-2H-isoindole-2-butanoic acid]",IC50,[3],120 nM
same,IC50,[1],4.8 µM
same,IC50,[2],1300 nM
CNC(=O)[C@H](Cc1ccccc1)NC(=O)[C@H](CC(C)C)[C@H](CSc1cccs1)C(=O)NO [batimastat],survival of mice bearing human ovarian carcinoma xenografts,[4],prolongs the survival
same,inhibition of human colon tumor growth and spread,human colon tumor,inhibits human colon tumor growth and spread
COc1ccc(CCCC(=O)CC(CCc2ccccc2)C(=O)O)cc1 (stereo not drawn) [VII],inhibition at 5 µM,[1],3%
same,inhibition at 5 µM,[2],18%
"CCCCCCCCCCCC(=O)CC(CCN1C(=O)c2ccccc2C1=O)C(=O)O (stereo not drawn) [III, 1,3-dihydro-1,3-dioxo-α-(2-oxotidecyl)-2H-isoindole-2-butanoic acid]",IC50,[3],91 nM
same,IC50,[1],2.95 µM
same,IC50,[2],750 nM
"CCCCCCCCCC(=O)CC(CCN1C(=O)c2ccccc2C1=O)C(=O)O (stereo not drawn) [II, 1,3-dihydro-1,3-dioxo-α-(2-oxoundecyl)-2H-isoindole-2-butanoic acid]",IC50,[3],240 nM
same,IC50,[1],5 µM
same,IC50,[2],1850 nM
"CCCCCCCCCCCCC(=O)CC(CCN1C(=O)c2ccccc2C1=O)C(=O)O (stereo not drawn) [IV, 1,3-dihydro-1,3-dioxo-α-(2-oxotetradecyl)-2H-isoindole-2-butanoicacid]",IC50,[3],155 nM
same,IC50,[1],2.38 µM
same,IC50,[2],515 nM
